Some results are limits rather than exact numbers.

One data set deals with T-cell line. Description: Tested for its effective dose required to inhibit the replication of HIV-1 in human T-cell line. It is filed as functional. The settings on record: read-out: ED50 (the source's name).
Data set [1] in a line: Tested for the cytotoxicity against HIV-1 in human T-cell line. Type of data set: cell-based. The settings on record: read-out: TD50 (the source's name).

For the molecule `COC(=O)C(NP(=O)(OCC1OC(n2cc(C)c(=O)[nH]c2=O)CC1F)OCC(Cl)(Cl)Cl)C(C)C` (stereo not given), the EC50 in the data set with T-cell line stood at 300 nM. In addition, the CC50 in data set [1] is over 100 µM.

For the molecule `COC(=O)C(C)NP(=O)(OCC1OC(n2cc(C)c(=O)[nH]c2=O)CC1F)OCC(Cl)(Cl)Cl` (stereo not given), the EC50 with T-cell line was found to be 300 nM. Further, the CC50 in data set [1] is over 100 µM.

For the molecule `COC(=O)C(Cc1ccccc1)NP(=O)(NC(Cc1ccccc1)C(=O)OC)OCC1OC(n2cc(C)c(=O)[nH]c2=O)CC1F` (stereo not given), in the data set with T-cell line, the EC50 stood at 5000 nM. The CC50 in data set [1] was over 100 µM.

As for `Cc1cn(C2CC(F)C(COP(=O)(OCC(Cl)(Cl)Cl)OCC(Cl)(Cl)Cl)O2)c(=O)[nH]c1=O` (stereo not given), the EC50 with T-cell line was found to be 10 nM. Moreover, the CC50 in data set [1] was found to be 100 µM.

Consider `Cc1cn([C@H]2C[C@H](F)[C@@H](CO)O2)c(=O)[nH]c1=O` [ALOVUDINE], for which, in the data set with T-cell line, the EC50 was found to be 5 nM. The CC50 in data set [1] was determined as 100 µM.

The values are drawn from ChEMBL document CHEMBL1151515, “Attempts to introduce chemotherapeutic nucleotides into cells: studies on the anti-HIV agent FDT” (Bioorg Med Chem Lett, 1991).
